The values below come from patent publication US20250163076A1, “SYNTHESIS OF BRUTON'S TYROSINE KINASE INHIBITORS” (JANSSEN PHARMACEUTICA NV, priority 2022, published 2025).

SMILES strings stand for the structures. Converted amounts (≈) assume the structure as drawn. Read-outs that look alike come from different tables or passages of the source.

A short description of data set [1]: Aqueous solubility at pH 2 and pH 7. It is filed as physicochemical. The following applies: aqueous medium, Table 4.
The next data set has as its target BTK (Homo sapiens, UniProt Q06187). The experiment in a line: BTK covalent inhibition kinetics (KI, kinact, kinact/KI). The format is biochemical. Conditions: for Ki / kinact: average of 2 independent determinations (± SD). The protocol:
The development of the structure-activity relationship was conducted by characterizing the non-covalent affinity of each inhibitor for BTK (KI) and the first order rate constant for irreversible covalent bond formation (kinact). The second order rate constant kinact/KI ratio is used to assess the covalent inhibitor potency because it is independent of incubation time and substrate concentrations (Copeland, R. A. Evaluation of Enzyme Inhibitors in Drug Discovery: a Guide for Medicinal Chemists and Pharmacologists; 2nd ed.; Wiley: Hoboken, N.J., 2013).

The nature of data set [2]: Human liver microsomes T1/2. It is filed as in vitro ADME. The following applies: human, liver microsomes; Table 4. For orientation: Liver microsomes are a subcellular fraction often used to study metabolism.
[3] abbreviates: aqueous buffer, pH 7, read-out: Solubility pH 7.
The mark [4] stands for this setting: simulated gastric fluid, pH 2, read-out: Solubility pH 2.

Chain of BTK (Q06187 whole entry): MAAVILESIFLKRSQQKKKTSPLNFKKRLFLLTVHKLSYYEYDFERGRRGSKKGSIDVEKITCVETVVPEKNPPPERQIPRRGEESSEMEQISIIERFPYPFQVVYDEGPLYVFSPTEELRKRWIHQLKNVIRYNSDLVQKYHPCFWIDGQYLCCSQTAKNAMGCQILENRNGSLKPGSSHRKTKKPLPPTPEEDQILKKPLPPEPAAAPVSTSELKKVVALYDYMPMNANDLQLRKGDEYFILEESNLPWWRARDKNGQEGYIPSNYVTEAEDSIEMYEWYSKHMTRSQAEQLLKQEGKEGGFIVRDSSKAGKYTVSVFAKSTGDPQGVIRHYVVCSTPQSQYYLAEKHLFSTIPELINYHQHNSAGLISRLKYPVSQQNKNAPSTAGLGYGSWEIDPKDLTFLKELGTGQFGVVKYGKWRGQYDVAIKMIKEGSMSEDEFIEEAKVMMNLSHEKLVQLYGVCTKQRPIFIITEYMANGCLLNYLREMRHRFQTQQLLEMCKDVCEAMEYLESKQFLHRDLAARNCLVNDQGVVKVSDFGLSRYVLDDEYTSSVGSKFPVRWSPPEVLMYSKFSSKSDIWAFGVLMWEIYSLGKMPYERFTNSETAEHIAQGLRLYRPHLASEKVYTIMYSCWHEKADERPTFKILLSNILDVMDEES

Consider `C=CC(=O)N1CCCC(NC(=O)c2sc3nccc4c3c2NC(=O)N4c2ncc(Oc3ccccc3)cc2C)C1` (stereo not shown) [E], for which the Solubility in data set [1] (setting [3]) is 9 µM (≈ 4.99 µg/mL); in data set [1] (setting [4]), 16 µM (≈ 8.87 µg/mL). The molecule also came in with a Ki on BTK (Table 4) of 69.9 ± 0.2 nM. In addition, the kinact on BTK (Table 4) amounted to 0.000333 s⁻¹. The kinact/KI on BTK (Table 4, read-out: kinact/KI) is 4770 ± 7450 M⁻¹ s⁻¹. The half-life in data set [2] amounted to 4 min.
Consider `C=CC(=O)N1CCCC(NC(=O)c2sc3nccc4c3c2NC(=O)N4c2ccc(Oc3ccccc3)cc2)C1` (stereo not shown) [Compound B], for which the Solubility in data set [1] (setting [3]) and in data set [1] (setting [4]) was less than 4 µM throughout. In addition, at BTK (Table 4), the Ki was 32 ± 20 nM. Further, the kinact at BTK (Table 4) was determined as 0.00039 ± 0.00011 s⁻¹. In addition, the kinact/KI on BTK (Table 4, read-out: kinact/KI) was determined as 13800 ± 5200 M⁻¹ s⁻¹; at BTK (text b354), 13800 M⁻¹ s⁻¹. This molecule also returned a half-life in data set [2] of less than 4 min.

As usually defined, the Solubility is the dissolved amount per volume that the medium holds. Usually kinact stands for the rate constant of inactivation at saturating inhibitor. Broadly, the half-life is how long it takes for the measured level to halve.
